Experimental data as given in ChEMBL document CHEMBL2311443, “Exploring amino acids derivatives as potent, selective, and direct agonists of sphingosine-1-phosphate receptor subtype-1” (Bioorg Med Chem Lett, 2013).

Experiments:
Mus musculus [1] = assay: Immunomodulatory activity in C57Bl/6 mouse assessed as induction of lymphopenia at 10 mg/kg, po measured after 6 hrs; assay type: functional
Homo sapiens [2] = species: Homo sapiens; assay: Selectivity index, ratio of EC50 for human S1P3 to EC50 for human S1P1
[3] = target: T1, Sphingosine 1-phosphate receptor 3 (Homo sapiens, UniProt Q99500); assay: Displacement of [33P]S1P from human S1P3 receptor expressed in HEK293T cells after 1 hr by liquid scintillation counting analysis; assay type: cell-based, HEK-293T
T1 sequence (Q99500 whole entry): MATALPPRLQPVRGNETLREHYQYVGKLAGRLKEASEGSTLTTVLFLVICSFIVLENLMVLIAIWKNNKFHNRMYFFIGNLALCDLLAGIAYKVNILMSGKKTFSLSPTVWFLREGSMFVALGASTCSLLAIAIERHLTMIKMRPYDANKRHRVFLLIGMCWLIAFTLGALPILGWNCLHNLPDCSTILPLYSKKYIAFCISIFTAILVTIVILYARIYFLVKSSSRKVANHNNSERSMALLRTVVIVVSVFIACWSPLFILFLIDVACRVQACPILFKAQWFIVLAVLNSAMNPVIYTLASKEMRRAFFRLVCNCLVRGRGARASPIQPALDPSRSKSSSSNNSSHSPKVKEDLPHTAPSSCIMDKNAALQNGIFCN

[4] = target: T1, Sphingosine 1-phosphate receptor 3; assay: Agonist activity at human S1P3 receptor expressed in HEK293T cells assessed as stimulation of [35S]GTPgammaS binding; assay type: functional, cell-based, HEK-293T
[5] = target: T2, Sphingosine 1-phosphate receptor 1 (Homo sapiens, UniProt P21453); assay: Agonist activity at human S1P1 receptor expressed in HEK293T cells assessed as stimulation of [35S]GTPgammaS binding; assay type: functional, cell-based, HEK-293T
T2 sequence (P21453 whole entry): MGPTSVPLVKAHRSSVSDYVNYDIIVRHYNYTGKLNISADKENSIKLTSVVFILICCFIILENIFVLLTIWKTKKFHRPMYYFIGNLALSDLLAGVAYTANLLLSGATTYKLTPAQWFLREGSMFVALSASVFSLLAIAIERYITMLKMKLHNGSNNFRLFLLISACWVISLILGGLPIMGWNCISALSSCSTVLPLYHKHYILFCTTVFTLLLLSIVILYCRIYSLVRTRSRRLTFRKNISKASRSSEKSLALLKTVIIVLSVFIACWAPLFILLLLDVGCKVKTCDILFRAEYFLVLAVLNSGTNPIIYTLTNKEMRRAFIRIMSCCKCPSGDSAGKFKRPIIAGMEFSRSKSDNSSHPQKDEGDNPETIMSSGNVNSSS

[6] = target: T2, Sphingosine 1-phosphate receptor 1; assay: Displacement of [33P]S1P from human S1P1 receptor expressed in HEK293T cells after 1 hr by liquid scintillation counting analysis; assay type: cell-based, HEK-293T
Homo sapiens [7] = species: Homo sapiens; assay: Selectivity index, ratio of IC50 for human S1P3 to IC50 for human S1P1
Mus musculus [8] = assay: Immunomodulatory activity in C57Bl/6 mouse assessed as induction of lymphopenia at 1 mg/kg, po measured after 6 hrs; assay type: functional
Mus musculus [9] = assay: Immunomodulatory activity in C57Bl/6 mouse assessed as induction of lymphopenia at 20 mg/kg, iv measured after 6 hrs; assay type: functional

Row | Structure (SMILES) | Ratio EC50 (Homo sapiens [2]) | IC50 [3] | EC50 [4] | EC50 [5] | IC50 [6] | Ratio IC50 (Homo sapiens [7]) | Activity (Mus musculus [1]) | Activity (Mus musculus [8]) | Activity (Mus musculus [9])
1 | CCCCCCCCOc1ccc(NC(=O)[C@@](C)(N)CC(=O)O)cc1C(F)(F)F | > 22 | > 10000 nM | > 3000 nM | 135 nM | 95 nM | – | 24% | – | –
2 | CCCCCCCCc1ccc(NC(=O)[C@@](C)(N)CC(=O)O)cc1C(F)(F)F | – | > 10000 nM | – | – | 370 nM | – | – | – | –
3 | C[C@](N)(CC(=O)O)c1nc(-c2ccc(OCc3ccc(-c4ccccc4)cc3)c(C(F)(F)F)c2)c[nH]1 | > 4 | > 10000 nM | > 3000 nM | 700 nM | 82 nM | – | – | – | –
4 | N[C@@H](CC(=O)O)c1nc(-c2ccc(OCc3ccc(-c4ccccc4)cc3)c(C(F)(F)F)c2)c[nH]1 | > 18.6 | > 10000 nM | > 3000 nM | 161 nM | 17 nM | – | – | – | –
5 | CCCCCCCCc1ccc(CCC(N)(CO)CO)cc1 [FINGOLIMOD] | – | – | – | – | – | – | – | 80% | –
6 | O=C(O)CCc1nc(-c2ccc(OCc3ccc(-c4ccccc4)cc3)c(C(F)(F)F)c2)c[nH]1 | – | > 10000 nM | – | – | 3000 nM | – | – | – | –
7 | CCCCCCCCOc1ccc(NC(=O)[C@@H](N)CC(=O)O)cc1C(F)(F)F | > 13 | > 10000 nM | > 3000 nM | 231 nM | 53 nM | – | 33% | – | 60%

Now from value to compound, other results behind:

Row | Ratio EC50 (Homo sapiens [2]) | IC50 [3] | EC50 [4] | EC50 [5] | IC50 [6] | Ratio IC50 (Homo sapiens [7]) | Structure (SMILES) | Activity (Mus musculus [1]) | Activity (Mus musculus [8]) | Activity (Mus musculus [9])
8 | 11 | 1050 nM | 1800 nM | 164 nM | 14.4 nM | 73 | CCCCCCCCOc1ccc(NC(=O)[C@@H](N)CC(=O)O)cc1 | 57% | – | –
9 | – | 10000 nM | – | – | 92 nM | – | CCCCCCCCOc1ccc(NC(=O)[C@@H](N)CCC(=O)O)cc1 | 44% | – | –
10 | – | 10000 nM | – | – | 77 nM | – | CCCCCCCCOc1ccc(NC(=O)[C@@](C)(N)CCC(=O)O)cc1 | – | – | –
11 | – | 10000 nM | – | – | 74 nM | – | CCCCCCCCOc1ccc(NC(=O)[C@@](C)(N)/C=C/C(=O)O)cc1 | 25% | – | –
